Experiments:
[1] = system: NR2B subunit of the NMDA receptors; test: Western blot of NR2B expression and phosphorylation in the dorsal horn of the spinal cord; assay type: in vivo, rat; details: D3 after oxaliplatin 6 mg/kg ip, polyamine-containing diet, vs control animals
Protocol: The dorsal corn of the spinal cord (L4-L6) was isolated on an ice block and immediately frozen in liquid nitrogen. The samples were then stored at −80° C. until analysis.
The tissue samples were subjected to cell lysis at 4° C. performed with 300 μL of stop buffer (50 mM Hepes, 150 mM NaCl, 10 mM EDTA, 10 mM Na2P2O7, 10 mM vanadate, 2 mM Na3VO4, 100 mM NaF, 1% Triton, 0.5 mM PMSF, 100 UI/mL Iniprol and 20 μM Leupeptine, pH 7.5). After sonication (1 to 2 minutes at 4° C.), the sample was centrifuged at 14000 rpm at 4° C. and the supernatant collected. This centrifuging step was repeated once. The supernatant contained the cytoplasmic and membrane proteins assayed by colorimetry (BC Assay UP40840A®, Interchim). […] The proteins were then transferred onto a nitrocellulose membrane (Millipore) for 2 hours in a transfer buffer (25 mM Tris, 190 mM glycine, 20% methanol, pH 8.3). The membranes were hybridised with the corresponding antibodies overnight at 4° C. […] The Western-Blots were scanned with an image analyser ChemiDoc™ XRS System, Bio-rad®) and the density of each band was quantified using computer software (Image Lab™ software, Bio-rad®)). […] The results are expressed as a percentage of the control group (non-treated group receiving a diet containing polyamines, PCD CT).

[2] = system: chronic neuropathy induced by oxaliplatin in rat; test: Thermal Place Preference Test 20° C. vs. 30° C., chronic neuropathy model, preventive diet
Protocol: The rats were distributed among plastic cages with 4 rats per cage. The cages were placed in an air-conditioned room at 22° C.±2° C., with controlled hygrometry (50%), a day/night 12-hour lighting cycle, and free access to food and water.
Two types of compositions were used: • a composition containing a quantity of polyamines equivalent to that present in a daily food diet (Putrescine: 54 mg/kg, Cadaverine: 37 mg/kg, Spermidine: 27 mg/kg, Spermine: 7 mg/kg), • a composition with low polyamine content comprising less than 1600 picomoles/g polyamines (Putrescine<0.01 mg/kg, Cadaverine<0.01 mg/kg, Spermidine<0.01 mg/kg, Spermine<0.01 mg/kg).
The different types of diets (diet based on a composition comprising a normal content of polyamines or PCD (Polyamine Containing Diet) and a diet based on a composition with low polyamines content called PDD (Polyamine Deficient Diet)) were given as soon as the rats arrived in the animal housing facility i.e. one week before the start of experiments.
The Thermal Place Preference Test (Bioseb®, Chaville, France) is formed of two adjacent metal plates surrounded by a chamber in opaque Plexiglas. The rat is placed in the chamber and is free to move from one plate to the other. The first plate called the <<reference plate>> is held at ambient temperature (25-30° C.) and the second plate called the <<test plate>> is held at a cold temperature. Using an infrared camera connected to a computer, the time that the animal spends on each plate is measured, together with the number of movements between the two plates. Each session lasts 3 minutes. Habituation of the animals consists of placing the rats on the apparatus for 3 minutes several times a day maintaining the two plates at a temperature of 25° C. […] Three pairs of temperatures were chosen for the experiments in relation to the model examined:

[3] = system: chronic neuropathy induced by oxaliplatin in rat; test: Thermal Place Preference Test 20° C. vs. 30° C., chronic neuropathy model, curative diet (PDD from D15); details: rats on PCD diet
Protocol: The Thermal Place Preference Test (Bioseb®, Chaville, France) is formed of two adjacent metal plates surrounded by a chamber in opaque Plexiglas. The rat is placed in the chamber and is free to move from one plate to the other. The first plate called the <<reference plate>> is held at ambient temperature (25-30° C.) and the second plate called the <<test plate>> is held at a cold temperature. Using an infrared camera connected to a computer, the time that the animal spends on each plate is measured, together with the number of movements between the two plates. Each session lasts 3 minutes. Habituation of the animals consists of placing the rats on the apparatus for 3 minutes several times a day maintaining the two plates at a temperature of 25° C.

O=C1[O][Pt]2([NH][C@@H]3CCCC[C@H]3[NH]2)[O]C1=O [oxaliplatin]
expression of the NR2B subunit [1]: No variation
phosphorylation of the NR2B subunit on tyrosine sites 1472 and 1336 and serine site 1303 [1]: No variation
change in time spent on the test plate (20° C.) vs control rats on PCD diet ([2]; D10, p<0.001): −42%
change in time spent on the test plate (20° C.) vs control rats on PCD diet ([2]; D15, p<0.001): −32%
change in time spent on the test plate (20° C.) vs control rats on PCD diet ([2]; D22, p<0.001): −24%
change in time spent on the test plate (20° C.) vs control rats on PCD diet ([2]; D29, p<0.05): −20%
change in time spent on the test plate (20° C.) vs control rats ([3]; D4 (maximal), p<0.01): −46%
change in time spent on the test plate (20° C.) vs control rats ([3]; D39, p<0.01): −15%
